Laboratory results from US9695155B2, “Herbicidal substituted pyrimidinyloxy benzene compounds” (E. I. DU PONT DE NEMOURS AND COMPANY, priority 2013, dated 2017).

What was measured:
[1] = test system: Italian ryegrass; assay: Test A preemergence; type: in vivo, Lolium multiflorum
Method in brief: (§1)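 Visual 0–100 rating (100 = complete control) taken about 10 d post-treatment relative to untreated checks. Preemergence: directed soil spray on sown loam/sand pots. Postemergence: seedlings 2–10 cm, 1–2 leaf. Non-phytotoxic solvent formulation with surfactant.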

[2] = test system: lambsquarters; assay: Test C preemergence; type: in vivo, Chenopodium album; conditions: for Lambsquarters plant response rating: preemergence; for Plant response rating, Lambsquarters: Preemergence, scale 0 to 100, 0 no effect, 100 complete control
Method in brief: (§2)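 Preemergence: seeds sown in a loam soil–sand blend and sprayed with test chemical in a non-phytotoxic solvent mixture containing surfactant. Postemergence: plants at 2 to 18 cm (1- to 4-leaf stage) in peat-based medium, treated with the same formulation. Greenhouse 13 to 15 days, then visual rating 0 (no effect) to 100 (complete control).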

[3] = test system: yellow nutsedge; assay: Test C preemergence; type: in vivo, Cyperus esculentus; conditions: for Nutsedge, Yellow plant response rating: preemergence; for Plant response rating, Nutsedge, Yellow: Preemergence, scale 0 to 100, 0 no effect, 100 complete control
Method in brief: as §2

[4] = test system: galium; assay: Test C preemergence; type: in vivo, Galium aparine; conditions: for Galium plant response rating: preemergence; for Plant response rating, Galium: Preemergence, scale 0 to 100, 0 no effect, 100 complete control
Method in brief: as §2

[5] = test system: oilseed rape; assay: Test C preemergence; type: in vivo, Brassica napus; conditions: for Oilseed Rape plant response rating: preemergence; for Plant response rating, Oilseed Rape: Preemergence, scale 0 to 100, 0 no effect, 100 complete control
Method in brief: as §2

[6] = test system: kochia; assay: Test A postemergence; type: in vivo, Kochia scoparia
Method in brief: as §1

[7] = test system: giant foxtail; assay: Test C preemergence; type: in vivo, Setaria faberii; conditions: for Foxtail, Giant plant response rating: preemergence; for Plant response rating, Foxtail, Giant: Preemergence, scale 0 to 100, 0 no effect, 100 complete control
Method in brief: as §2

[8] = test system: wheat, winter; assay: Test C preemergence; type: in vivo, Triticum aestivum; conditions: for Wheat plant response rating: preemergence; for Plant response rating, Wheat: Preemergence, scale 0 to 100, 0 no effect, 100 complete control
Method in brief: as §2

[9] = test system: galium; assay: Test A postemergence; type: in vivo, Galium aparine
Method in brief: as §1

[10] = test system: waterhemp; assay: Test C preemergence; type: in vivo, Amaranthus rudis; conditions: for Waterhemp plant response rating: preemergence; for Plant response rating, Waterhemp: Preemergence, scale 0 to 100, 0 no effect, 100 complete control
Method in brief: as §2

[11] = test system: soybean; assay: Test C preemergence; type: in vivo, Glycine max; conditions: for Soybean plant response rating: preemergence; for Plant response rating, Soybean: Preemergence, scale 0 to 100, 0 no effect, 100 complete control
Method in brief: as §2

[12] = test system: kochia; assay: Test A preemergence; type: in vivo, Kochia scoparia
Method in brief: as §1

[13] = test system: johnsongrass; assay: Test C preemergence; type: in vivo, Sorghum halepense; conditions: for Johnsongrass plant response rating: preemergence; for Plant response rating, Johnsongrass: Preemergence, scale 0 to 100, 0 no effect, 100 complete control
Method in brief: as §2

[14] = test system: blackgrass; assay: Test C preemergence; type: in vivo, Alopecurus myosuroides; conditions: for Blackgrass plant response rating: preemergence; for Plant response rating, Blackgrass: Preemergence, scale 0 to 100, 0 no effect, 100 complete control
Method in brief: as §2

[15] = test system: ragweed; assay: Test C preemergence; type: in vivo, Ambrosia elatior; conditions: for Ragweed plant response rating: preemergence; for Plant response rating, Ragweed: Preemergence, scale 0 to 100, 0 no effect, 100 complete control
Method in brief: as §2

[16] = test system: barnyardgrass; assay: Test C preemergence; type: in vivo, Echinochloa crus-galli; conditions: for Barnyardgrass plant response rating: preemergence; for Plant response rating, Barnyardgrass: Preemergence, scale 0 to 100, 0 no effect, 100 complete control
Method in brief: as §2

[17] = test system: velvetleaf; assay: Test C preemergence; type: in vivo, Abutilon theophrasti; conditions: for Velvetleaf plant response rating: preemergence; for Plant response rating, Velvetleaf: Preemergence, scale 0 to 100, 0 no effect, 100 complete control
Method in brief: as §2

[18] = test system: pigweed; assay: Test C preemergence; type: in vivo, Amaranthus retroflexus; conditions: for Pigweed plant response rating: preemergence; for Plant response rating, Pigweed: Preemergence, scale 0 to 100, 0 no effect, 100 complete control
Method in brief: as §2

[19] = 125 g ai/ha, 0 to 100 scale where 0 is no effect and 100 is complete control
[20] = 500 g ai/ha, 0 to 100 scale where 0 is no effect and 100 is complete control
[21] = 16 g ai/ha, scale 0 to 100 (0 no effect, 100 complete control)
[22] = 62 g ai/ha, scale 0 (no effect) to 100 (complete control)
[23] = 8 g ai/ha, scale 0 to 100 (0 no effect, 100 complete control)
[24] = 31 g ai/ha, 0 to 100 scale where 0 is no effect and 100 is complete control, visual, approximately 10 days
[25] = 125 g ai/ha, scale 0 (no effect) to 100 (complete control)
[26] = 31 g ai/ha, 0 to 100 scale, 0 no effect, 100 complete control
[27] = 125 g ai/ha, 0 to 100 scale, 0 no effect, 100 complete control

N#Cc1cnn(-c2c(C#N)cccc2Oc2ncc(Br)cn2)c1 [Compound 135]
Plant response rating, Ryegrass, Italian [1, 19]: 0 | Ryegrass, Italian plant response rating [1, 20]: 20 | Lambsquarters plant response rating [2, 21]: 30 | Lambsquarters plant response rating [2, 22]: 85 | Plant response rating, Lambsquarters ([2]; 31 g ai/ha): 85 | Nutsedge, Yellow plant response rating [3, 23]: 0 | Nutsedge, Yellow plant response rating [3, 21]: 0 | Nutsedge, Yellow plant response rating [3, 22]: 15 | Plant response rating, Nutsedge, Yellow ([3]; 31 g ai/ha): 0 | Galium plant response rating [4, 23]: 0 | Galium plant response rating [4, 21]: 0 | Galium plant response rating [4, 22]: 90 | Plant response rating, Galium ([4]; 31 g ai/ha): 80 | Oilseed Rape plant response rating [5, 23]: 30 | Oilseed Rape plant response rating [5, 21]: 55 | Oilseed Rape plant response rating [5, 22]: 95 | Plant response rating, Oilseed Rape ([5]; 31 g ai/ha): 95 | Kochia plant response rating [6, 19]: 20 | Plant response rating, Kochia [6, 20]: 70 | Foxtail, Giant plant response rating [7, 23]: 0 | Foxtail, Giant plant response rating [7, 21]: 5 | Foxtail, Giant plant response rating [7, 22]: 70 | Plant response rating, Foxtail, Giant ([7]; 31 g ai/ha): 70 | Wheat plant response rating [8, 23]: 0 | Wheat plant response rating [8, 21]: 0 | Wheat plant response rating [8, 22]: 0 | Plant response rating, Wheat ([8]; 31 g ai/ha): 0 | Galium plant response rating [9, 19]: 60 | Plant response rating, Galium [9, 20]: 90 | Waterhemp plant response rating [10, 23]: 55 | Waterhemp plant response rating [10, 21]: 75 | Waterhemp plant response rating [10, 22]: 100 | Plant response rating, Waterhemp ([10]; 31 g ai/ha): 100 | Soybean plant response rating [11, 23]: 10 | Soybean plant response rating [11, 21]: 20 | Soybean plant response rating [11, 22]: 85 | Plant response rating, Soybean ([11]; 31 g ai/ha): 65 | Plant response rating, Kochia [12, 19]: 100 | Kochia plant response rating [12, 20]: 100 | Johnsongrass plant response rating [13, 23]: 0 | Johnsongrass plant response rating [13, 21]: 0 | Johnsongrass plant response rating [13, 22]: 45 | Plant response rating, Johnsongrass ([13]; 31 g ai/ha): 5 | Blackgrass plant response rating [14, 23]: 0 | Blackgrass plant response rating [14, 21]: 0 | Blackgrass plant response rating [14, 22]: 20 | Plant response rating, Blackgrass ([14]; 31 g ai/ha): 5 | Ragweed plant response rating [15, 23]: 0 | Ragweed plant response rating [15, 21]: 40 | Ragweed plant response rating [15, 22]: 65 | Plant response rating, Ragweed ([15]; 31 g ai/ha): 55 | Barnyardgrass plant response rating [16, 23]: 0 | Barnyardgrass plant response rating [16, 21]: 0 | Barnyardgrass plant response rating [16, 22]: 60 | Plant response rating, Barnyardgrass ([16]; 31 g ai/ha): 15 | Velvetleaf plant response rating [17, 23]: 5 | Velvetleaf plant response rating [17, 21]: 40 | Velvetleaf plant response rating [17, 22]: 85 | Plant response rating, Velvetleaf ([17]; 31 g ai/ha): 45 | Pigweed plant response rating [18, 23]: 50 | Pigweed plant response rating [18, 21]: 85 | Pigweed plant response rating [18, 22]: 98 | Plant response rating, Pigweed ([18]; 31 g ai/ha): 80

FC(F)Oc1cnn(-c2c(Cl)cccc2Oc2ncc(Cl)cn2)c1 [Compound 258]
Plant response rating, Ryegrass, Italian [1, 24]: 0 | Ryegrass, Italian plant response rating (0 to 100 scale) ([1]; 125 g ai/ha): 10 | Lambsquarters plant response rating [2, 21]: 65 | Lambsquarters plant response rating [2, 25]: 98 | Plant response rating, Lambsquarters ([2]; 62 g ai/ha): 98 | Nutsedge, Yellow plant response rating [3, 21]: 5 | Nutsedge, Yellow plant response rating [3, 25]: 100 | Plant response rating, Nutsedge, Yellow ([3]; 62 g ai/ha): 95 | Galium plant response rating [4, 21]: 80 | Galium plant response rating [4, 25]: 100 | Plant response rating, Galium ([4]; 62 g ai/ha): 100 | Oilseed Rape plant response rating [5, 21]: 80 | Oilseed Rape plant response rating [5, 25]: 100 | Plant response rating, Oilseed Rape ([5]; 62 g ai/ha): 100 | Plant response rating, Kochia [6, 26]: 90 | Plant response rating, Kochia [6, 27]: 100 | Foxtail, Giant plant response rating [7, 21]: 75 | Foxtail, Giant plant response rating [7, 25]: 100 | Plant response rating, Foxtail, Giant ([7]; 62 g ai/ha): 100 | Wheat plant response rating [8, 21]: 0 | Wheat plant response rating [8, 25]: 25 | Plant response rating, Wheat ([8]; 62 g ai/ha): 5 | Plant response rating, Galium [9, 26]: 70 | Plant response rating, Galium [9, 27]: 90 | Waterhemp plant response rating [10, 21]: 100 | Waterhemp plant response rating [10, 25]: 100 | Plant response rating, Waterhemp ([10]; 62 g ai/ha): 98 | Soybean plant response rating [11, 21]: 35 | Soybean plant response rating [11, 25]: 95 | Plant response rating, Soybean ([11]; 62 g ai/ha): 75 | Plant response rating, Kochia [12, 24]: 90 | Kochia plant response rating (0 to 100 scale) ([12]; 125 g ai/ha): 90 | Johnsongrass plant response rating [13, 21]: 5 | Johnsongrass plant response rating [13, 25]: 90 | Plant response rating, Johnsongrass ([13]; 62 g ai/ha): 75 | Blackgrass plant response rating [14, 21]: 0 | Blackgrass plant response rating [14, 25]: 90 | Plant response rating, Blackgrass ([14]; 62 g ai/ha): 90 | Ragweed plant response rating [15, 21]: 0 | Ragweed plant response rating [15, 25]: 90 | Plant response rating, Ragweed ([15]; 62 g ai/ha): 80 | Barnyardgrass plant response rating [16, 21]: 45 | Barnyardgrass plant response rating [16, 25]: 100 | Plant response rating, Barnyardgrass ([16]; 62 g ai/ha): 90 | Velvetleaf plant response rating [17, 21]: 80 | Velvetleaf plant response rating [17, 25]: 100 | Plant response rating, Velvetleaf ([17]; 62 g ai/ha): 100 | Pigweed plant response rating [18, 21]: 100 | Pigweed plant response rating [18, 25]: 100 | Plant response rating, Pigweed ([18]; 62 g ai/ha): 100
